Format in all cases: cell-based, human
Test [1] deals with A2780 cells. Briefly: MTT antiproliferative assay, A2780. As to conditions: Homo sapiens, A2780, 72 h, read-out: Growth inhibition, % ± SEM, 72 h; for inhibition at 10 µM: A2780, 10 μM; for inhibition at 30 µM: A2780, 30 μM. How it is done:
(§1) The antiproliferative properties of the newly synthesized compounds (9–20) and their starting materials (4 and 5) were determined on a panel of human adherent cancer cell lines. MCF-7, MDA-MB-231 and T47D were isolated from breast cancers differing in biochemical background, while A2780 cells were isolated from ovarian cancer. HeLa and SiHa are cervical cancer cell lines positive for HPV-18 and HPV-16, respectively, while C33-A cervical cancer cells are negative for HPV. Moreover, two oropharyngeal cancer cell lines were also utilized: the HPV-negative UPCI-SCC-131 and HPV-16 positive UPCI-SCC-154. The cancer selectivity of compounds was tested on the non-cancerous mouse embryo fibroblast cell line NIH/3T3. All cell lines were purchased from European Collection of Cell Cultures (ECCAC, Salisbury, UK) exception for SiHa and C33-A (American Tissue Culture Collection, Manassas, VA, USA) and HN-SCC-131 and UPCI-SCC-154 (German Collection of Microorganisms and Cell Cultures GmbH, Braunschweig, Germany). Cells were cultivated in minimal essential medium supplemented with 10% fetal bovine serum, 1% non-essential amino acids and an antibiotic–antimycotic mixture. The medium of oropharyngeal cancer cells additionally contained 2.0 mM L-glutamine. All media and supplements were obtained from Lonza Group Ltd., Basel, Switzerland. Near-confluent cancer cells were seeded onto a 96-well microplate at a density of 5,000 cells/well, except for C33-A which were seeded at 10,000/well. After overnight standing, new medium containing the tested compounds at 10 and 30 µM final concentration was added. After incubation for 72 h at 37 °C in humidified air containing 5% CO2, the living cells were assayed by the addition of 20 μL of 5 mg/ml 3-(4,5-dimethylthiazol-2-yl)-2,5-diphenyltetrazolium bromide (MTT) solution. MTT was converted by intact mitochondrial reductase and precipitated as purple crystals during a 4-h contact period. The medium was next removed and the precipitated formazan crystals were dissolved in 100 μL of DMSO during a 60-min period of shaking at 37 ^оC.
(§2) All in vitro experiments were carried out twice with five parallels. Stock solutions of the tested substances (10 mM) were prepared in DMSO. […] Cisplatin (Ebewe Pharma GmbH, Unterach, Austria) was used as positive control.
In general terms: Formazan colour is commonly taken as a measure of viable cells.

In test [2] the test system is SiHa cells. Briefly: MTT antiproliferative assay, SiHa. Particulars: Homo sapiens, 72 h; for inhibition at 10 µM: read-out: Growth inhibition, % ± SEM, 10 μM; for inhibition at 30 µM: read-out: Growth inhibition, % ± SEM, 30 μM. The protocol: as §1, §2
Test [3] concerns UPCI-SCC-154 cells. As to the kind of experiment: MTT antiproliferative assay, UPCI-SCC-154. Particulars: Homo sapiens, 72 h, read-out: Growth inhibition, % ± SEM, 72 h; for inhibition at 10 µM: UPCI-SCC-154, 10 μM; for inhibition at 30 µM: UPCI-SCC-154, 30 μM. How it is done:
as §1, §2

Test [4] relates to C33-A cells. Briefly: MTT antiproliferative assay, C33-A. As to conditions: Homo sapiens, C-33-A, 72 h; for inhibition at 10 µM: read-out: Growth inhibition, % ± SEM, C33-A, 10 μM; for inhibition at 30 µM: read-out: Growth inhibition, % ± SEM, C33-A, 30 μM. The protocol: as §1, §2
The test system of test [5] is T47D cells. Briefly: MTT antiproliferative assay, T47D. As to conditions: Homo sapiens, 72 h; for inhibition at 10 µM: read-out: Growth inhibition, % ± SEM, 10 μM; for inhibition at 30 µM: read-out: Growth inhibition, % ± SEM, 30 μM. The protocol:
as §1, §2

Test [6] relates to MDA-MB-231 cells. Briefly: MTT antiproliferative assay, MDA-MB-231. As to conditions: Homo sapiens, MDA-MB-231, 72 h, read-out: Growth inhibition; % ± SEM. The protocol: as §1, §2
For test [7], the system named is HeLa cells. Briefly: MTT antiproliferative assay, HeLa. Particulars: Homo sapiens, 72 h; for inhibition at 10 µM: read-out: Growth inhibition, % ± SEM, 10 μM; for inhibition at 30 µM: read-out: Growth inhibition, % ± SEM, 30 μM. The protocol: as §1, §2
Test [8] deals with UPCI-SCC-131 cells. Briefly: MTT antiproliferative assay, UPCI-SCC-131. Particulars: Homo sapiens, 72 h, read-out: Growth inhibition, % ± SEM, 72 h; for inhibition at 10 µM: UPCI-SCC-131, 10 μM; for inhibition at 30 µM: UPCI-SCC-131, 30 μM. How it is done:
as §1, §2

Test [9] concerns MCF-7 cells. Briefly: MTT antiproliferative assay, MCF-7. Particulars: Homo sapiens, MCF7, 72 h, read-out: Growth inhibition, % ± SEM, 72 h; for inhibition at 10 µM: MCF-7, 10 μM; for inhibition at 30 µM: MCF-7, 30 μM. How it is done: as §1, §2

Some results are limits rather than exact numbers.

Here are results for two molecules from paper PMC8405091, “Microwave-assisted Phospha-Michael addition reactions in the 13α-oestrone series and in vitro antiproliferative properties” (Journal of Enzyme Inhibition and Medicinal Chemistry, 2021).

What is called inhibition is the percentage by which the read-out fell short of the control.

For `Cc1ccc(P(=O)(C[C@H]2C[C@H]3[C@@H]4CCc5cc(OCc6ccccc6)ccc5[C@H]4CC[C@@]3(C)C2=O)c2ccc(C)cc2)cc1` [Compound 16, [(3-benzyloxy-17-oxo-13α-oestra-1,3,5(10)-trien-16β-yl)methyl]di-p-tolylphosphine oxide], the inhibition at 10 µM in test [1] was under 20%; in test [2], under 20%; in test [3], under 20%; in test [4], under 20%; in test [5], 23.6 ± 1.22%; in test [6], under 20%. The inhibition at 10 µM was under 20% in test [7], 49.5 ± 2.27% in test [8] and under 20% in test [9]. Further, the inhibition at 30 µM in [1] is 67.3 ± 3.04%; in [2], under 20%; in test [3], 31.6 ± 2.41%; in test [4], 59.1 ± 0.69%; in test [5], 64.5 ± 1.6%; in test [6], under 20%. Further, the inhibition at 30 µM was 31.8 ± 2.27% in test [7], 67.4 ± 1.11% in test [8] and under 20% in test [9].
Regarding `COc1ccc2c(c1)CCC1C2CCC2(C)C(=O)C(CP(=O)(c3ccc4ccccc4c3)c3ccc4ccccc4c3)CC12` (stereo not drawn) [Compound 17, [(3-methoxy-17-oxo-13α-oestra-1,3,5(10)-trien-16α-yl)methyl]di(naphtalen-2-yl)phosphine oxide], the inhibition at 10 µM in [1], in test [2], in test [3], in test [4], in test [5] and in test [6] was under 20% throughout. The values for the inhibition at 10 µM in test [7], in test [8] and in [9] were under 20%, 26.5 ± 1.7% and under 20%, respectively. Moreover, the inhibition at 30 µM is under 20% in [1]; under 20% in test [2]; 20.3 ± 2.69% in test [3]; under 20% in test [4]; 27.1 ± 2.93% in test [5]; under 20% in test [6]. Further, the inhibition at 30 µM is under 20% in test [7], 45.3 ± 1.84% in [8] and under 20% in test [9].
